In brackets after ≈: the same amount, converted by molar mass. Like-named read-outs stand apart in the source and are kept apart here.
How the values were obtained:
[1] = tested on: Leishmania amazonensis promastigotes; assay: Leishmanicidal activity, alamarBlue fluorescence, 72 hours incubation with promastigotes; assay type: cell-based; details: for SI (CC50/IC50): ratio of macrophage CC50 to L. amazonensis IC50
[2] = Toxicity against mouse cells, alamarBlue assay, 24 hours; assay type: cell-based; details: murine macrophages, read-out: Macrophage Toxicity CC50
Experimental: To assess toxicity, all compounds were evaluated against mouse cells for 24 hours by means of the alamarBlue assay. […] The higher the value of CC50, the greater the amount of compound required to damage mouse cells, therefore, the lower the toxicity of the compound.

[3] = Leishmania amazonensis, promastigotes, 72 hours, alamarBlue, read-out: L. amazonensis IC50

Structure (SMILES) | IC50 [1, 3] [µg/mL] | SI (CC50/IC50) [1] | CC50 at 24 h [2] [µg/mL] | leishmanicidal activity ([1]; statement in words) | IC50 [1] [µg/mL] | IC50 ([1]; Leishmania amazonensis, read-out: IC50) [µg/mL]
CC1=CC(=O)C(C2CCCC2)=CC1=O [SG-005, 2-cyclopentyl-5-methylcyclohexa-2,5-diene-1,4-dione] | 0.13 ± 0.03 (≈ 0.683 µM) | 5.50 | 0.72 ± 0.01 (≈ 3.78 µM) | – | – | –
CC1=CC(=O)C=C(C2CCCC2)C1=O [SG-003, 2-cyclopentyl-6-methylcyclohexa-2,5-diene-1,4-dione] | 0.34 ± 0.01 (≈ 1.79 µM) | 13.30 | 4.53 ± 0.9 (≈ 23.8 µM) | – | – | –
CC1=CC(=O)C(C2CCCCC2)=CC1=O [SG-008, 2-cyclohexyl-5-methylcyclohexa-2,5-diene-1,4-dione] | 0.06 ± 0.01 (≈ 0.294 µM) | 42.50 | 2.55 ± 0.2 (≈ 12.5 µM) | – | – | –
CCC(C)(CC)C1=CC(=O)C(C)=CC1=O [SG-011, 2-methyl-5-(3-methylpentan-3-yl)cyclohexa-2,5-diene-1,4-dione] | 0.89 ± 0.06 (≈ 4.31 µM) | 13.80 | 12.3 ± 0.77 (≈ 59.5 µM) | – | – | –
CC1=CC(=O)C(C2CCCCCC2)=CC1=O [SG-013, 2-cycloheptyl-5-methylcyclohexa-2,5-diene-1,4-dione] | 0.09 (≈ 0.412 µM) | 7.10 | 0.92 ± 0.05 (≈ 4.21 µM) | – | – | –
CC1=CC(=O)C=C(C2CCCCCC2)C1=O [SG-014, 2-cycloheptyl-6-methylcyclohexa-2,5-diene-1,4-dione] | 0.7 ± 0.02 (≈ 3.21 µM) | 24.20 | 8.95 ± 1.75 (≈ 41 µM) | – | – | –
CCC(C)(C)C1=CC(=O)C(C)=CC1=O [SG-010, 2-methyl-5-(tert-pentyl)cyclohexa-2,5-diene-1,4-dione] | 0.12 ± 0.02 (≈ 0.624 µM) | 37.50 | 4.51 ± 0.47 (≈ 23.5 µM) | shows leishmanicidal activity | – | –
CC1=CC(=O)C(C23CC4CC(CC(C4)C2)C3)=CC1=O [SG-012, 2-((3r,5r,7r)-adamantane-1-yl)-5-methylcyclohexa-2,5-diene-1,4-dione] | 0.08 ± 0.01 (≈ 0.312 µM) | 9.75 | 0.78 ± 0.02 (≈ 3.04 µM) | – | – | –
CC1=CC(=O)C=C(C2CCCCC2)C1=O [SG-007, 2-cyclohexyl-6-methylcyclohexa-2,5-diene-1,4-dione] | 0.07 ± 0.02 (≈ 0.343 µM) | 7.40 | 0.52 ± 0.09 (≈ 2.55 µM) | – | – | –
CCCCCCCCCCCCCCCCOP(=O)([O-])OCC[N+](C)(C)C [Miltefosine, miltefosine, reference compound] | – | 11.14 | 29.4 ± 1.25 (≈ 72.2 µM) | – | 2.64 (≈ 6.48 µM) | 2.64 (≈ 6.48 µM)

— patent US20260022089A1, “QUINONE-DERIVED COMPOUNDS AND USE THEREOF AGAINST LEISHMANIA SPP” (Universidad de la Laguna, priority 2022, published 2026)
